In patent publication US20080195322A1, “Quantification of the Effects of Perturbations on Biological Samples” (The Board of Regents of the University of Texas System, priority 2007, published 2008):

Tested on: HeLa cells
Test: High-throughput image-based multivariate phenotypic profiling (d-profiles) of the 100-compound compendium by fluorescence microscopy
Type: cell-based, human
Settings: for compound closest to first d-profile / compound closest to second d-profile: compounds with multiple d-profiles
Description: To illustrate the performance of the present multivariate approach, the disclosed methods were applied to a compendium of fluorescence microscopy images in which HeLa cells were treated with 100 compounds, dissolved in dimethyl sulfoxide (DMSO), over 13 threefold titrations as shown in FIGS. 5A and 5B. The compounds represented approximately 20 categories of activities as shown in the table of FIG. 6, selected to cover mechanisms of toxicity, signaling pathways, and therapeutic targets in cancer and other diseases. Compound effects were assayed in duplicate on 384-well plates, using four sets of multiplexed molecular markers (DNA-SC35-anillin; DNA-p53-cFos; DNA-p38-pERK; DNA-mirotubule-actin). On average, 2413±852 (mean±standard deviation) cells were captured per well, from 103,580 images per marker set, to yield a total of ˜37 million individual identified cells. Cells treated with DMSO alone were used as controls.
Although most of these features were derived from the measurements of individual markers, some features measured information from more than one marker (such as the spatial correlation between the intensities of two different markers).
Due to biological and experimental variability, the significance thresholds of classification accuracy at p=0.05 estimated on every plate were much higher than 50% (FIGS. 8A-D, lower panels, dashed lines), and occasionally could reach as high as 90%. Therefore, well-to-well variability, even within the control population, could be high and should not be ignored.
To simulate a drug screen for compounds of similar target to a known compound, a d-profile was selected to be the reference profile, while all other d-profiles from the compendium were used as blinded test profiles. Similarity scores between the reference profile and all other test profiles were computed and ranked. The test profiles that were most similar to the reference profile were selected as “drug candidates.”
For each reference profile, the performance in identifying test profiles was estimated with similar a target on each marker set by using prior target annotations as the “gold standard.” […] was used as the performance evaluation criterion (Methods). “On-target” effects were defined as d-profiles whose AUC values were significant (p<0.05), and all other d-profiles were defined as “off-target.” 73%, 40%, 67%, and 56% of the compounds with more than one d-profile and at least one on-target d-profile had at least one off-target d-profile on the DNA-SC35-anillin, DNA-p53-cFos, DNA-p38-pERK and DNA-MT-actin marker sets respectively. […] Thus, the present method can identify dose-dependent secondary or tertiary responses that were very different from the primary responses.
The compound category of a novel d-profile may be inferred by comparison to a collection of previously categorized reference d-profiles. […] Although all of these compounds are histone deacetylase inhibitors, oxamflatin, trichostatin, and scriptaid are hydroxamic acids having very different chemical structures than apicidin, a cyclic tetrapeptide. […] For a d-profile, an accurate prediction was made when its most similar d-profile was annotated to the same target category.

[1] = drug screening simulation against prior target annotations

For `CC[C@@]1(O)C(=O)OCc2c1cc1n(c2=O)Cc2cc3ccccc3nc2-1` [Camptothecin], the “compound closest to first d-profile” value (category prediction) was “closest to another topoisomerase inhibitor, etoposide”, the “compound closest to second d-profile” value (category prediction) was “closest to a CDK inhibitor, alsterpullone” and the “off-target effects (d-profiles whose AUC not significant)” value [1] was “one off-target effect”. For the same compound, the “on-target effects (d-profiles whose AUC values were significant, p<0.05)” value [1] was “one on-target effect”.
For `COc1cccc2c1C(=O)c1c(O)c3c(c(O)c1C2=O)C[C@@](O)(C(=O)CO)C[C@@H]3O[C@H]1C[C@H](N)[C@H](O)[C@H](C)O1` [doxorubixin], the “number of features needed to detect compound effects after recursive feature removal” value (in each of the four marker sets) was “only a single feature”.
In the case of `NC(=O)NO` [hydroxy urea-2, hydroxy urea], the “most similar d-profiles (category prediction)” value (DNA-p53-cFos marker set) is reported as “most similar to aphidicolin and methotrexate”.
For `COC(=O)Nc1nc2ccc(C(=O)c3cccs3)cc2[nH]1` [nocadazale, Nocodazole], the “d-profile similarity to the group of microtubule stabilizing compounds (taxol second d-profile, epothilone B, griseofulvin)” value (category prediction) was “further away”.
In the case of `CC(=O)O[C@H]1C(=O)[C@@]2(C)[C@H]([C@H](OC(=O)c3ccccc3)[C@]3(O)C[C@H](OC(=O)[C@H](O)[C@@H](NC(=O)c4ccccc4)c4ccccc4)C(C)=C1C3(C)C)[C@]1(OC(C)=O)CO[C@@H]1C[C@@H]2O` [taxol, Taxol], the number of d-profiles (across all four marker sets, 13 threefold titrations) is reported as 2, the “compound closest to first d-profile” value (category prediction) is reported as “closest to sulindac sulfide” and the “compound closest to second d-profile” value (category prediction) is reported as “closest to epothilone B and griseofulvin”.
In the case of Oxamflatin, the “most similar d-profiles (category prediction)” value (DNA-p38-pERK marker set) is reported as “most similar to trichostatin, scriptaid, and apicidin”.
